The record followed here is US12371428B2 (Exelixis, Inc., priority 2019, dated 2025).

Each structure is given as a SMILES string. pIC50: −log10 of the molar value. Where a name gives a salt, the structure may show the parent alone. Bounds are passed on as bounds.

One may read the pIC50 as the IC50 on a negative log10 scale, so that one unit is a factor of ten.

For assay [1], the target named is Mer (phospho-Mer, MERTK-transfected 293A cells) (Homo sapiens (Human), UniProt Q12866). As to the kind of experiment: Mer autophosphorylation ELISA in transient transfected 293A cells (Example H). It is filed as cell-based. To be noted: cellular activity; Mer autophosphorylation ELISA in transient transfected 293A cells. In a few lines:
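IC50 from phospho-Mer ELISA of MERTK-transfected 293A cell lysates after 1 h treatment with serially diluted compound in serum-free medium.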
(ELISA stands for enzyme-linked immunosorbent assay.)

Assay [2] addresses Human MET (residues 956-1390) (Homo sapiens (Human), UniProt P08581). As to the kind of experiment: Human Met kinase assay, HTRF KinEase (Example D-2). It is filed as biochemical. To be noted: protocol of Example D-2 (other compounds); read-out: c-Met IC50. The method in brief: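 MET kinase domain (956-1390), 0.1 ng/well, in buffer with 5 mM MgCl2, 1 mM DTT and 1 mM MnCl2, phosphorylated a biotinylated peptide at ATP Km for 40 min at RT; 10 concentrations, 3% DMSO final. EDTA-stopped HTRF read after 60 min; IC50 from a 4-parameter logistic fit.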
A general note: TR-FRET usually uses a lanthanide donor and a delayed reading to cut background.

Sequence of Mer (phospho-Mer, MERTK-transfected 293A cells) (Q12866 21-999): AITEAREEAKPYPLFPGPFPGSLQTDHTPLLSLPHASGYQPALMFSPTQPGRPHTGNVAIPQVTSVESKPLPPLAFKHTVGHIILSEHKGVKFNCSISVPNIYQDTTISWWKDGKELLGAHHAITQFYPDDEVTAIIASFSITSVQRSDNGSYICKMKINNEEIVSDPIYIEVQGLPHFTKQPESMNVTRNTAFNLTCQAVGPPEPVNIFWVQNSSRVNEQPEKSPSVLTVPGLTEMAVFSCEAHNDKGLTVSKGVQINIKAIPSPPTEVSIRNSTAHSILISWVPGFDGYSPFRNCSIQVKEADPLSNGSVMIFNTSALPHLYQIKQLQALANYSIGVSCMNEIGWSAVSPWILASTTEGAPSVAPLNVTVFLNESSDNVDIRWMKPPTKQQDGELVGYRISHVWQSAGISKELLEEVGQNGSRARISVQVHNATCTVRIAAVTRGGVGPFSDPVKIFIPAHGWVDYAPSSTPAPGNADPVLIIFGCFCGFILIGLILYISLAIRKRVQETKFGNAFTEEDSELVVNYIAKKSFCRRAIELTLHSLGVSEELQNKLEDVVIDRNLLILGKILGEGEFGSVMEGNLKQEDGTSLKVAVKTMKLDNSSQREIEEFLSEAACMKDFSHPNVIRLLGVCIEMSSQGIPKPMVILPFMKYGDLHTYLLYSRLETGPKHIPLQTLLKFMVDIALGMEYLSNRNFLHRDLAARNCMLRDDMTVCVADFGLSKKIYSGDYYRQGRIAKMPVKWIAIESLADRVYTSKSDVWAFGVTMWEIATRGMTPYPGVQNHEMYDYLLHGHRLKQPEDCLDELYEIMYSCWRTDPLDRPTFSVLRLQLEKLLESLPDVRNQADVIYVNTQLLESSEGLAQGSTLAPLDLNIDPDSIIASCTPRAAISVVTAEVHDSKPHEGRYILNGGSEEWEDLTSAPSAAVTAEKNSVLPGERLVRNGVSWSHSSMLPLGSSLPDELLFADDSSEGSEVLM
Sequence of Human MET (residues 956-1390) (P08581 956-1390): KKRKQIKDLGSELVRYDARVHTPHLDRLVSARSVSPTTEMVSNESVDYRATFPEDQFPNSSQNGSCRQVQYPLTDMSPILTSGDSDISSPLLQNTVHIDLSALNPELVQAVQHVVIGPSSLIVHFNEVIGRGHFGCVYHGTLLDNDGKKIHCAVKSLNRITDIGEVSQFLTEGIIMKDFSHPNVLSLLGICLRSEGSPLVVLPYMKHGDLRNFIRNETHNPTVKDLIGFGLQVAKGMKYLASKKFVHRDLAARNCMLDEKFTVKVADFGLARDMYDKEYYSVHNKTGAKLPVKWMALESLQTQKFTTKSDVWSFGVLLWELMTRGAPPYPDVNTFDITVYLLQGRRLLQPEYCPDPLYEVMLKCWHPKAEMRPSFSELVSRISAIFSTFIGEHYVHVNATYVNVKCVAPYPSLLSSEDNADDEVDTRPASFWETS

Take `COc1cc2nccc(Oc3ccc(NC(=O)c4cn(C)c(C)c(-c5ccccc5)c4=O)cc3F)c2nc1OC` [Compound 36, N-[4-[(6,7-Dimethoxy-1,5-naphthyridin-4-yl)oxy]-3-fluorophenyl]-1,6-dimethyl-4-oxo-5-phenylpyridine-3-carboxamide hydrochloride]: the pIC50 in assay [1] and in assay [2] was greater than 7.00 in each case.

Consider `COCCOc1nc2c(Oc3ccc(NC(=O)c4c(COC)nc(C)c(-c5ccc(F)cc5)c4O)cc3F)ccnc2cc1OC` [Compound 199, N-[3-Fluoro-4-[[7-methoxy-6-(2-methoxyethoxy)-1,5-naphthyridin-4-yl]oxy]phenyl]-5-(4-fluorophenyl)-4-hydroxy-2-(methoxymethyl)-6-methylpyridine-3-carboxamide], for which the pIC50 in assay [1] and in assay [2] was greater than 7.00 each time.

For the compound `COc1cnc2c(Oc3ccc(NC(=O)c4c(C)nc(C)n(-c5ccc(F)cc5)c4=O)cc3F)ccnc2c1` [Compound 257, N-[3-Fluoro-4-[(7-methoxy-1,5-naphthyridin-4-yl)oxy]phenyl]-1-(4-fluorophenyl)-2,4-dimethyl-6-oxopyrimidine-5-carboxamide], the pIC50 in assay [1] and in assay [2] was greater than 7.00 each time.

`COc1cnc2c(Oc3ccc(NC(=O)c4ccc(C)n(-c5ccc(F)cc5C)c4=O)cc3F)ccnc2c1` [Compound 220, N-[3-Fluoro-4-[(7-methoxy-1,5-naphthyridin-4-yl)oxy]phenyl]-1-(4-fluoro-2-methylphenyl)-6-methyl-2-oxopyridine-3-carboxamide]: the pIC50 in assay [1] and in assay [2] was greater than 7.00 each time.

Take `COCCOc1nc2c(Oc3ccc(NC(=O)c4cn(C)c(C)c(-c5ccc(F)cc5)c4=O)cc3F)ccnc2cc1OC` [Compound 198, N-[3-Fluoro-4-[[7-methoxy-6-(2-methoxyethoxy)-1,5-naphthyridin-4-yl]oxy]phenyl]-5-(4-fluorophenyl)-1,6-dimethyl-4-oxopyridine-3-carboxamide]: the negative-log IC50 (pIC50) in assay [1] and in assay [2] was greater than 7.00 in each case.

Regarding `COc1cnc2c(Oc3ccc(NC(=O)c4c(C)n(C)cc(-c5ccc(F)cc5)c4=O)cc3F)ccnc2c1` [Compound 239, N-[3-Fluoro-4-[(7-methoxy-1,5-naphthyridin-4-yl)oxy]phenyl]-5-(4-fluorophenyl)-1,2-dimethyl-4-oxopyridine-3-carboxamide], the pIC50 in assay [1] and in assay [2] was greater than 7.00 in each case.

In the case of `COc1ccc2nccc(Oc3ccc(NC(=O)c4cnc(CO)c(-c5ccc(F)cc5)c4O)cc3F)c2n1` [Compound 231, N-[3-Fluoro-4-[(6-methoxy-1,5-naphthyridin-4-yl)oxy]phenyl]-5-(4-fluorophenyl)-4-hydroxy-6-(hydroxymethyl)pyridine-3-carboxamide], the pIC50 in assay [1] and in assay [2] was greater than 7.00 throughout.

For `COc1ccc2nccc(Oc3ccc(NC(=O)c4cn(C)c(C)c(-c5ccc(F)cc5C)c4=O)cc3F)c2n1` [Compound 183, N-[3-Fluoro-4-[(6-methoxy-1,5-naphthyridin-4-yl)oxy]phenyl]-5-(4-fluoro-2-methylphenyl)-1,6-dimethyl-4-oxopyridine-3-carboxamide], the pIC50 in assay [1] and in assay [2] was greater than 7.00 in each case.

Take `COc1cnc2c(Oc3ccc(NC(=O)c4cn(C)c(C)c(-c5ccc(F)cc5C)c4=O)cc3F)ccnc2c1` [Compound 181, N-[3-Fluoro-4-[(7-methoxy-1,5-naphthyridin-4-yl)oxy]phenyl]-5-(4-fluoro-2-methylphenyl)-1,6-dimethyl-4-oxopyridine-3-carboxamide]: the pIC50 in assay [1] and in assay [2] was greater than 7.00 throughout.

On to `COc1cnc2c(Oc3ccc(NC(=O)c4ccc(C)n(-c5ccc(F)cc5C)c4=O)cc3)ccnc2c1` [Compound 226, 1-(4-Fluoro-2-methylphenyl)-N-[4-[(7-methoxy-1,5-naphthyridin-4-yl)oxy]phenyl]-6-methyl-2-oxopyridine-3-carboxamide], for which the pIC50 in assay [1] and in assay [2] was greater than 7.00 throughout.
